Data published in US20130029334A1, “mRNA As Biomarkers For Liver Injury or Other Liver Perturbations” (priority 2010, published 2013).
“And” between values parts separate entries of the source, which are not always exact repeats. Identical values can stand only once. Like-named read-outs stand apart in the source and are kept apart here.

What was measured:
rats [1] = assay: Alb, Fgb, Hp mRNA expression in liver of treated rats (FIG. 2); assay type: in vivo, rat; details: APAP 1400 mg/kg treatment group
Description: FIG. 2 is a graph showing a log2 fold change in expression of Alb, Fgb, and Hp mRNA (detected as cDNA), respectively, in liver of rats treated with DGAL, or with acetaminophen (APAP), as compared to references values determined from rats not treated with DGAL (Control; solid black boxes) or APAP (Control; solid black boxes), respectively.
At 48 hours, Hp mRNA levels were increased by 9, 54 and 86 fold over controls, respectively, at 100, 700, and 1400 mg/kg APAP; while Alb mRNA levels were increased by 13 and 31 fold at 700 and 1400 mg/kg.

rats [2] = assay: Whole genome microarray analysis of plasma mRNA of treated rats; assay type: in vivo, rat; details: APAP 1400 mg/kg gavage, 24 h
Source text: In this example, illustrated is whole genome microarray analysis, which can be used to reveal treatment-specific transcriptomic profiles following liver injury or liver enzyme induction. […] Total RNA was isolated from the 14,000×g plasma pellet from rats treated with DGAL or APAP. […] Next, this fragmented product was labeled via enzymatic attachment of a biotin-labeled nucleotide that contained an indicator molecule comprising a fluorophore. After this labeled cDNA was hybridized and bound to the oligonucleotides on the microarray, any unbound cDNA was washed away and the microarrays were scanned. During this process, the microarray chips were scanned at a wavelength that allowed the indicator molecule to fluoresce (the excitation wavelength). The level of mRNA biomarker was determined from the level of fluorescence (e.g., correlating to the amount of labeled cDNA hybridized to the microarray) using standard techniques. Data on measurement of mRNA biomarkers (which also may be representative of gene expression induced as a result of liver perturbation) was preprocessed using GC-RMA and log2-transformed. The probe-level microarray data was checked for quality using various graphical and statistical means. Arrays showing low quality RNA or poor amplification were excluded from the analysis. To evaluate the ability of whole genome microarray analysis using plasma mRNA to discriminate between DGAL- and APAP-induced liver perturbation, a one-way analysis of variance and individual t-tests were then used to identify which individual mRNA biomarkers were statistically altered between the two treatment groups. A false-discovery rate correction was used for multiple comparisons. Analysis software was utilized to identify networks of interacting genes and other functional groups using gene lists generated.

rats [3] = details: 48 hours
Description: In this example, to model a drug causing liver perturbation (such as injury or hepatotoxicity), hepatotoxicant D-galactosamine (“DGAL”) was administered to rats. Male Sprague-Dawley rats were administered DGAL at 0 (sterile PBS) or 1000 mg/kg intraperitoneally, and sacrificed after 24 hours. […] Blood was harvested from DGAL-treated rats, and serum liver enzymes were measured using a standard laboratory assay.
In this example, to exemplify a drug causing liver injury, drug acetaminophen (“APAP”) was administered to rats. Rats were administered APAP at 0, 100, 700, and 1400 mg/kg by gavage, and then sacrificed at 6, 24 or 48 hours after treatment. Hematoxylin and eosin-stained liver sections were examined by an accredited pathologist and scored for incidence and severity of hepatocellular necrosis.

## CC(=O)Nc1ccc(O)cc1 [APAP, acetaminophen]
Rats [1]
  expression of Alb mRNA in liver: significant decrease
  expression of Hp mRNA in liver: significant decrease
Rats [2]; 2-fold change, false discovery rate <0.05
  number of mRNA biomarkers differentially expressed: 1374
Rats [2]
  CYP450-related mRNAs in plasma: No increases
Rats [2]; rat plasma
  Fold increase Adam10: 14 fold
  Fold increase Akt3: 4 fold
  Fold increase Angpt1: 23 fold
  Fold increase Arhgef12: Arhgef12 (12); F2RI2 (12) fold
  Fold increase B2M: B2M (3) fold
  Fold increase Calr: 3 fold
  Fold increase Dapp1: 5 fold
  Fold increase F2RI2: Arhgef12 (12); F2RI2 (12) fold
  Fold increase Fcgr2b: 7 fold
  Fold increase Grin1: 10 fold
  Fold increase Gsk3b: Gsk3b (6) fold
  Fold increase Hla-C: 23 fold
  Fold increase Hla-E1: 9 fold
  Fold increase Itga6: 19 fold
  Fold increase Itgav: Itgav (12) fold
  Fold increase Itgb1: 17 fold
  Fold increase Jak2: 13 fold
  Fold increase Lyn: 10 fold
  Fold increase Mapk1: 15 fold
  Fold increase Nck2: 8 fold
  Fold increase Pdia3: Canx (5); Pdia3 (5); fold
  Fold increase Prkc: 4 fold
  Fold increase Prkcq: 3 fold
  Fold increase Psap: 20 fold
  Fold increase Rac1: 4 fold
  Fold-Change Alb mRNA (first listing): 102.57 fold and 103 fold
  Fold-Change Alb mRNA (second listing): 11.26 fold
  Fold-Change Arhgap28 mRNA: 23.18 fold
  Fold-Change C2cd21 mRNA: 21.52 fold
  Fold-Change Ccl2 mRNA: 79.83 fold
  Fold-Change Ceacam1 mRNA: 28.57 fold
  Fold-Change Cxcl2 mRNA: 68.29 fold
  Fold-Change Cxcl7 mRNA: 37.96 fold
  Fold-Change Cxcl12 mRNA: 30.90 fold and 31 fold
  Fold-Change Fam183b mRNA: 26.31 fold
  Fold-Change G1p2 mRNA: 17.16 fold
  Fold-Change Galnt1 mRNA: 22.06 fold
  Fold-Change Gpnmb mRNA: 6.10 fold
  Fold-Change Hspa1a mRNA: 40.60 fold
  Fold-Change Hspa1b mRNA: 21.07 fold
  Fold-Change Kcnab1 mRNA: 24.65 fold
  Fold-Change LOC259245 mRNA: 4.94 fold
  Fold-Change Lta4h mRNA: 6.27 fold
  Fold-Change Mt2a mRNA: 16.40 fold
  Fold-Change Pde5a mRNA: 24.18 fold
  Fold-Change Pgrmc1 mRNA: 2.82 fold
  Fold-Change Prdx5 mRNA: 2.57 fold
  Fold-Change Ptprj mRNA: 61.43 fold
  Fold-Change RT1-A2 mRNA: 22.73 fold
  Fold-Change Rbp4 mRNA: 20.44 fold
  Fold-Change Serpina1 mRNA: 24.15 fold
  Fold-Change Slc24a3 mRNA (rat SEQ ID NO: 47): 25.57 fold
  Fold-Change Slc24a3 mRNA (rat SEQ ID NO: 57): 22.11 fold
  Fold-Change Srxn1 mRNA: 21.98 fold
  Fold-Change St3gal2 mRNA: 21.94 fold
  Fold-Change Tuba4a mRNA: 4.21 fold
  Fold-Change Vcl mRNA: 70.40 fold and 70 fold
  Fold-Change Xpo5 mRNA: 30.54 fold
Rats [3]; APAP 700 mg/kg gavage
  mortality: one rat
Rats [3]; APAP 1400 mg/kg gavage
  mortality: one rat
